Results published in US11285219B2, “Peptide-oligourea hybrid compounds” (UREKA SARL, priority 2019, dated 2022).
“Also recorded” adds a separate entry of the source. Numbered stars: 1 amine (or outer) side, 2 acyl side, 3 side chain; on linkers, the order of the positions; unused ones are H or OH. Bridge positions count the residues as written; N and C are the ends. Peptide text beside a SMILES is read from it. I, II: the chains in the order shown. X2 = C[C@@H](CNC(=O)N[C@@H](C)CNC(=O)N[C@@H](C)CNC(=O)N[C@@H](C)CNC(=O)[*:2])NC(=O)NC[C@H](CCC(=O)O)NC(=O)NC[C@H](Cc1ccc(O)cc1)N[*:1]; X3 = C[C@@H](CNC(=O)[*:1])NC(=O)NC[C@H](Cc1ccc(O)cc1)NC(=O)NC[C@H](C)N[*:2]; X5 = C[C@@H](CNC(=O)N[C@@H](C)CNC(=O)[*:2])NC(=O)NC[C@H](CCC(=O)O)N[*:1]

Key:
NEP 24.11 = NEP 24.11 (Homo sapiens, UniProt P08473); assay: in vitro; settings: pH 8
Sequence of NEP 24.11 (P08473 whole entry): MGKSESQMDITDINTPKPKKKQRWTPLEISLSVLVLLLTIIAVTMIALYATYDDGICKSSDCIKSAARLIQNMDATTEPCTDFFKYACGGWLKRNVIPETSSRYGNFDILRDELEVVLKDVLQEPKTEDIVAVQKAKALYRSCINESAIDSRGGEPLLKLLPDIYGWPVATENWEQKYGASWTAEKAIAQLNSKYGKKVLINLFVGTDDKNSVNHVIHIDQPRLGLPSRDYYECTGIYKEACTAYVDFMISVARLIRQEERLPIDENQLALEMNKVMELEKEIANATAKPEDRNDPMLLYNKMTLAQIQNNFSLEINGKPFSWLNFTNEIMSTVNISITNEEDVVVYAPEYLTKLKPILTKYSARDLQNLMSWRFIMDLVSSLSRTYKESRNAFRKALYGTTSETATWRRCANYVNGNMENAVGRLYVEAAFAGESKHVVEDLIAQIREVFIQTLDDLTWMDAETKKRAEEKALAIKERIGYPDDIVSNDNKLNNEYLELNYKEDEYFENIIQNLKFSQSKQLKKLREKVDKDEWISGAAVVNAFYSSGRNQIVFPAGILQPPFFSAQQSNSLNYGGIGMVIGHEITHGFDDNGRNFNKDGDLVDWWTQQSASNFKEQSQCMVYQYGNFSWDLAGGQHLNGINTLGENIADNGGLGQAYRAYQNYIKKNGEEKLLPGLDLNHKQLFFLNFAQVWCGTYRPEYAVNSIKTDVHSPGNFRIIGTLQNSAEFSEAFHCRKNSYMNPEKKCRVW
Protocol: Enzymatic and mouse plasma degradation studies.
Enzymatic degradation (NEP 24.11). Stock solutions of the oligomers were prepared at a concentration of 400 μM in a solution of 50 mM HEPES buffer, 50 mM NaCl, 0.05% Tween-80, pH 8.0. Stock solution of NEP 24.11 was prepared at a concentration of 100 μg/mL in water. Stability of oligomers to NEP 24.11 was assessed by conducting protease reaction in a 96-well plates at 20° C. […] Each compound was also incubated in the absence of the enzyme (12 μL of HEPES buffer and 38 μL of oligomer). At the indicated time (1, 2, 4, 6 and 22 hours) an aliquot of 10 μL was removed from each experimental reaction and pipetting into 100 μL of 1% TFA solution to quench the reaction, (t=0 min was determined using the reaction without enzyme). A portion of the quenched reaction solution was analyzed by HPLC. The time course of peptide degradation was determined by integrating the area of each peak in a series of HPLC traces.

normal mice (C57BL/6J) [1] = assay: Blood glucose experiment in healthy mice; type: in vivo, mouse; design: key to In vivo activity (indicator): + = active; +++: + + + = more active; settings: for effect on blood glucose concentration: monitored 6 h; for In vivo activity (indicator): blood glucose, mice, i.v.
Protocol: In the first study, we evaluated the effect of the analogues on the blood glucose concentration of normal mice (FIG. 4). The fed mice were treated with the analogues and their blood glucose concentration was monitored before and after dosing for 6 h. […] Indeed, a decrease of blood glucose concentration is observed after 30 min and the effect is preserved for 4 h after dosing.
Blood glucose experiment in healthy mice. After the acclimation period (at least 5 days), mice (male C57BL/6J mice (Charles River laboratories) (8 weeks old, 20-25 g)) were randomized into 10 groups (n=3/group) according to their body weight. They were acutely treated via i.v. route at 10 AM (5 μg/mouse). Blood glucose was measured before dosing and at 30 min, 1, 2, 4, 6 h after dosing in fed conditions.

[2] = molecular target: T1, mouse GLP-1 receptor endogenously expressed in βTC6 cells (Mus musculus, UniProt O35659); assay: cAMP production functional assay (HTRF), agonist activity at GLP-1R; type: cell-based; settings: for Potency (%), percentage of potency (cAMP production) compared to GLP-1-G^2: Table 2; for Potency (%), percentage of potency compare to GLP-1-G^2: cAMP production, Table 1; for EC50: receptor-mediated cAMP production, βTC6 cells, read-out: EC50 (nM), GLP-1R potency
T1 construct: host or cells: βTC6 cells
T1 sequence (O35659 22-463): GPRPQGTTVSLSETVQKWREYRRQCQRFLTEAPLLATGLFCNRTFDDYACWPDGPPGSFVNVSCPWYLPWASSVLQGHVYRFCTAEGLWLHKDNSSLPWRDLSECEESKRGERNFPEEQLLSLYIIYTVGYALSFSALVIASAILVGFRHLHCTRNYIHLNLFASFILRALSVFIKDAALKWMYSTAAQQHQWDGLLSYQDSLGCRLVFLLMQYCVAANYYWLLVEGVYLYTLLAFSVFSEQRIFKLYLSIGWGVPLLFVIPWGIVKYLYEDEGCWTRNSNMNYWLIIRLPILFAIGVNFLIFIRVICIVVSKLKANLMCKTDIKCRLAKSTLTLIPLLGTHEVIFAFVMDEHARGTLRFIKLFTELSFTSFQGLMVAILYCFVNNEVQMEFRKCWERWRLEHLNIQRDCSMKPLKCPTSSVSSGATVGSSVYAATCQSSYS
Protocol: The agonistic activity of these hybrids were obtained by functional assays using cells expressing the […] and by measuring the receptor-mediated cAMP produced (see supporting information).
In vitro pharmacology (EC50). […] Following incubation, the cells were lysed and the fluorescence acceptor (D2-labeled cAMP) and fluorescence donor (anti-cAMP antibody labeled with europium cryptate) were added.

normal mice (C57BL/6J) [3] = assay: Intra peritoneal glucose tolerance test (IPGTT) in fasted normal mice; type: in vivo, mouse; settings: fasted mice, 200 μg/kg i.v.
Protocol: In a second study, an IPGTT was performed 30 min after i.v. injections of 1, 14 and the vehicle (FIGS. 5B1 and 5B2). […] A further IPGTT study was done with a glucose challenge after 2 h of the dosing to investigate the prolong activity of hybrids 14, 22, and 23 (FIGS. 5C1 and 5C2).
IPGTT experiments in mice. After the acclimation period (at least 5 days), mice (male C57BL/6J mice (Charles River laboratories) (6 weeks old, 20-24 g)) were randomized into 6 groups (n=6/group) according to their body weight. The mice were fasted for 6 h prior being acutely treated via i.v. route (5 μg/mouse i.v. (200 μg/kg, 50 nmol/kg)) formulated at 20 μg/mL in PBS 1×. The IPGTTs were performed (glucose 2 g/kg i.p.) 5 min, 30 min, 2 h or 4 h after dosing and blood glucose was measured 30, 60, 90 and 120 min after the glucose challenge.

[4] = fed normal mice, 5 μg/mouse i.v.

Row | Structure (SMILES) | half-life at […] (NEP 24.11) [h] | effect on blood glucose concentration (normal mice (C57BL/6J) [1]; [4]) | loss of affinity with GLP-1R compared to the native peptide [2] | Potency (%), percentage of potency (cAMP production) compared to GLP-1-G^2 [2] [%] | Potency (%), percentage of potency compare to GLP-1-G^2 [2] [%] | EC50 [2] [nM] | In vivo activity (indicator) (normal mice (C57BL/6J) [1]) | IPGTT 2 h after dosing (normal mice (C57BL/6J) [3]) | time the decrease of blood glucose is preserved after dosing (normal mice (C57BL/6J) [1]; [4]) [h]
1 | CC[C@H](C)[C@@H](CNC(=O)N[C@@H](C)CNC(=O)N[C@@H](CC(C)C)C(=O)N[C@H](C(=O)N[C@@H](CCCCN)C(=O)NCC(=O)N[C@@H](CCCNC(=N)N)C(=O)NCC(N)=O)C(C)C)NC(=O)N[C@@H](CNC(=O)[C@H](CCC(=O)O)NC(=O)[C@H](CCCCN)NC(=O)[C@H](C)NC(=O)[C@H](C)NC(=O)[C@H](CCC(N)=O)NC(=O)CNC(=O)[C@H](CCC(=O)O)NC(=O)[C@H](CC(C)C)NC(=O)[C@H](Cc1ccc(O)cc1)NC(=O)[C@H](CO)NC(=O)[C@H](CO)NC(=O)[C@@H](NC(=O)[C@H](CC(=O)O)NC(=O)[C@H](CO)NC(=O)[C@@H](NC(=O)[C@H](Cc1ccccc1)NC(=O)[C@@H](NC(=O)CNC(=O)[C@H](CCC(=O)O)NC(=O)CNC(=O)[C@@H](N)Cc1c[nH]cn1)[C@@H](C)O)[C@@H](C)O)C(C)C)Cc1ccccc1 [Compound 16, GG2[F^UαI^UA^U]^22-25] | 1.8 | no activity; also recorded: no effect | over a hundred fold loss | 0.4 | 0.4 | 62 |  |  | 
2 | CC[C@H](C)[C@H](NC(=O)[C@H](Cc1ccccc1)NC(=O)[C@H](CCC(=O)O)NC(=O)[C@H](CCCCN)NC(=O)[C@H](C)NC(=O)[C@H](C)NC(=O)[C@H](CCC(N)=O)NC(=O)CNC(=O)[C@H](CCC(=O)O)NC(=O)NC[C@H](C)NC(=O)NC[C@H](Cc1ccc(O)cc1)NC(=O)NC[C@H](C)NC(=O)[C@@H](NC(=O)[C@H](CC(=O)O)NC(=O)[C@H](CO)NC(=O)[C@@H](NC(=O)[C@H](Cc1ccccc1)NC(=O)[C@@H](NC(=O)CNC(=O)[C@H](CCC(=O)O)NC(=O)CNC(=O)[C@@H](N)Cc1c[nH]cn1)[C@@H](C)O)[C@@H](C)O)C(C)C)C(=O)N[C@@H](C)C(=O)N[C@@H](Cc1c[nH]c2ccccc12)C(=O)N[C@@H](CC(C)C)C(=O)N[C@H](C(=O)N[C@@H](CCCCN)C(=O)NCC(=O)N[C@@H](CCCNC(=N)N)C(=O)NCC(N)=O)C(C)C [Compound 5, GG2[A^UY^UA^U]^11-14] (I: EGQAAKEFIAWLVKGRG-NH2 / II: H-HGEGTFTSDV; linker I:N-II:C via X3) | 2.9 | efficacy but no improvement |  | 15 | 15 |  | + |  | 
3 | CC[C@H](C)[C@H](NC(=O)[C@H](Cc1ccccc1)NC(=O)NC[C@H](C)NC(=O)NC[C@H](C)NC(=O)NC[C@H](C)NC(=O)NC[C@H](C)NC(=O)NC[C@H](CCC(=O)O)NC(=O)NC[C@H](Cc1ccc(O)cc1)NC(=O)[C@H](Cc1ccc(O)cc1)NC(=O)[C@H](CO)NC(=O)[C@H](CO)NC(=O)[C@@H](NC(=O)[C@H](CC(=O)O)NC(=O)[C@H](CO)NC(=O)[C@@H](NC(=O)[C@H](Cc1ccccc1)NC(=O)[C@@H](NC(=O)CNC(=O)[C@H](CCC(=O)O)NC(=O)CNC(=O)[C@@H](N)Cc1c[nH]cn1)[C@@H](C)O)[C@@H](C)O)C(C)C)C(=O)N[C@@H](C)C(=O)N[C@@H](Cc1c[nH]c2ccccc12)C(=O)N[C@@H](CC(C)C)C(=O)N[C@H](C(=O)N[C@@H](CCCCN)C(=O)NCC(=O)N[C@@H](CCCNC(=N)N)C(=O)NCC(N)=O)C(C)C [Compound 23, GG2[Y^uE^uA^uA^uA^uA^u]^14-21] (I: H-HGEGTFTSDVSSY / II: FIAWLVKGRG-NH2; linker I:C-II:N via X2) | 6.1 | improved efficacy |  | 7 | 7 | 3.4 | +++ | good control of the blood glucose concentration | 4
4 | CC[C@H](C)[C@H](NC(=O)[C@H](Cc1ccccc1)NC(=O)[C@H](CCC(=O)O)NC(=O)[C@H](CCCCN)NC(=O)[C@H](C)NC(=O)[C@H](C)NC(=O)[C@H](CCC(N)=O)NC(=O)CNC(=O)[C@H](CCC(=O)O)NC(=O)[C@H](CC(C)C)NC(=O)[C@H](Cc1ccc(O)cc1)NC(=O)NC[C@H](C)NC(=O)NC[C@H](C)NC(=O)N[C@@H](CNC(=O)[C@H](CO)NC(=O)[C@@H](NC(=O)[C@H](Cc1ccccc1)NC(=O)[C@@H](NC(=O)CNC(=O)[C@H](CCC(=O)O)NC(=O)CNC(=O)[C@@H](N)Cc1c[nH]cn1)[C@@H](C)O)[C@@H](C)O)CC(=O)O)C(=O)N[C@@H](C)C(=O)N[C@@H](Cc1c[nH]c2ccccc12)C(=O)N[C@@H](CC(C)C)C(=O)N[C@H](C(=O)N[C@@H](CCCCN)C(=O)NCC(=O)N[C@@H](CCCNC(=N)N)C(=O)NCC(N)=O)C(C)C [Compound 2, GG2[D^UαA^UA^U]^9-12] | 3.6 | no activity; also recorded: no effect | over a hundred fold loss | 2 | 2 | 13 |  |  | 
5 | CC[C@H](C)[C@H](NC(=O)[C@H](Cc1ccccc1)NC(=O)[C@H](CCC(=O)O)NC(=O)[C@H](CCCCN)NC(=O)[C@H](C)NC(=O)NC[C@H](C)NC(=O)NC[C@H](C)NC(=O)NC[C@H](CCC(=O)O)NC(=O)[C@H](CC(C)C)NC(=O)[C@H](Cc1ccc(O)cc1)NC(=O)[C@H](CO)NC(=O)[C@H](CO)NC(=O)[C@@H](NC(=O)[C@H](CC(=O)O)NC(=O)[C@H](CO)NC(=O)[C@@H](NC(=O)[C@H](Cc1ccccc1)NC(=O)[C@@H](NC(=O)CNC(=O)[C@H](CCC(=O)O)NC(=O)CNC(=O)[C@@H](N)Cc1c[nH]cn1)[C@@H](C)O)[C@@H](C)O)C(C)C)C(=O)N[C@@H](C)C(=O)N[C@@H](Cc1c[nH]c2ccccc12)C(=O)N[C@@H](CC(C)C)C(=O)N[C@H](C(=O)N[C@@H](CCCCN)C(=O)NCC(=O)N[C@@H](CCCNC(=N)N)C(=O)NCC(N)=O)C(C)C [Compound 11, GG2[E^UA^UA^U]^15-18] (I: H-HGEGTFTSDVSSYL / II: AKEFIAWLVKGRG-NH2; linker I:C-II:N via X5) | 3.9 | no activity; also recorded: no effect |  | 13 | 13 |  |  |  | 
